How the values were obtained:
[1] = molecular target: T1, human mAChRM1 (Homo sapiens, UniProt P11229); test: mAChR M1 cell-based functional assay (calcium mobilization), positive allosteric modulator activity: increase in the EC20 acetylcholine response; details: for Emax: PAM mode; for EC50: increase in the EC20 acetylcholine response, read-out: PAM Activity Human M1 EC50
T1 construct: host or cells: CHO-K1
T1 sequence (P11229 1-460): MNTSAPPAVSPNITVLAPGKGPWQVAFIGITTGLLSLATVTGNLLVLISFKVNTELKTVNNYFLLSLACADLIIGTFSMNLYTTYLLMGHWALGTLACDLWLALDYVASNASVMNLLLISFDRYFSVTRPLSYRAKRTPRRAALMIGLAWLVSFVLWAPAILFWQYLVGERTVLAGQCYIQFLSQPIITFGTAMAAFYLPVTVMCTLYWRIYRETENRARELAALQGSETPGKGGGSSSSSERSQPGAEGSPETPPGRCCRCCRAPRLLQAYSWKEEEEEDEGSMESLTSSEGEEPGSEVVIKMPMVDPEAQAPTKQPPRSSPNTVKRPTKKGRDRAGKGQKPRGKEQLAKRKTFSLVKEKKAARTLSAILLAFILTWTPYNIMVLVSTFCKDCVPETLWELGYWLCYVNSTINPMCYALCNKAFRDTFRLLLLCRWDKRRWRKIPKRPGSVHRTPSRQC
In short: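 Potentiation is scored as the rise in an EC20 acetylcholine-evoked calcium signal across 11-point (1:3) compound series, fitted with a four-parameter logistic equation to give EC50 and Emax. Read-out is Fluo-4 fluorescence ratio in hM1-transfected CHO-K1 cells, measured kinetically on FDSS.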

[2] = molecular target: T1, human mAChRM1; test: mAChR M1 cell-based functional assay (calcium mobilization), agonist activity upon compound addition, Emax relative to acetylcholine maximum; details: for Agonist Activity Human M1 EC50 / EC50: calcium mobilization upon compound addition; for Emax: relative to the maximum for acetylcholine
In short: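 Emax is given as a percentage of the maximal acetylcholine response, from four-parameter curves of compound-evoked calcium mobilization. Human M1-transfected CHO-K1 cells carried Fluo-4 dye, and compound (11 concentrations, 1:3 steps) was applied at 4 s of a 300 s kinetic fluorescence recording.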

Structure (SMILES)	Emax [1]	EC50 [1]	Agonist Activity Human M1 EC50 [2]	EC50 [2]	Emax [2]
Cn1cc2c(-c3ccc(CN4Cc5ncccc5C4=O)c(F)c3F)ccc(C(C)(C)O)c2n1 [Compound 63, 6-(2,3-difluoro-4-(7-(2-hydroxypropan-2-yl)-2-methyl-2H-indazol-4-yl)benzyl)-6,7-dihydro-5H-pyrrolo[3,4-b]pyridin-5-one]	64%	0.445 µM	inactive		
Cn1cc2c(-c3cc(Cl)c(CN4Cc5ncccc5C4=O)c(Cl)c3)ccc(C(C)(C)O)c2n1 [Compound 64, 6-(2,6-dichloro-4-(7-(2-hydroxypropan-2-yl)-2-methyl-2H-indazol-4-yl)benzyl)-6,7-dihydro-5H-pyrrolo[3,4-b]pyridin-5-one]	63%	0.145 µM		6.33 µM	15%
Cc1cc(-c2ccc(C(C)(C)O)c3nn(C)cc23)cc(Cl)c1CN1Cc2ncccc2C1=O [Compound 65, 6-(2-chloro-4-(7-(2-hydroxypropan-2-yl)-2-methyl-2H-indazol-4-yl)-6-methylbenzyl)-6,7-dihydro-5H-pyrrolo[3,4-b]pyridin-5-one]	65%	0.135 µM		≥ 10 µM	28%
Cn1cc2c(-c3cc(F)c(CN4Cc5ncccc5C4=O)c(C4CCCC4)c3)ccc(C(C)(C)O)c2n1 [Compound 66, 6-(2-cyclopentyl-6-fluoro-4-(7-(2-hydroxypropan-2-yl)-2-methyl-2H-indazol-4-yl)benzyl)-6,7-dihydro-5H-pyrrolo[3,4-b]pyridin-5-one]	62%	1.91 µM	inactive		
Cn1cc2c(-c3cc(Cl)c(CN4Cc5ncccc5C4=O)c(C4CC4)c3)ccc(C(C)(C)O)c2n1 [Compound 67, 6-(2-chloro-6-cyclopropyl-4-(7-(2-hydroxypropan-2-yl)-2-methyl-2H-indazol-4-yl)benzyl)-6,7-dihydro-5H-pyrrolo[3,4-b]pyridin-5-one]	62%	0.147 µM		6.1 µM	32%
Cn1nc(C(C)(C)O)cc1-c1cc(F)c(CN2Cc3ncccc3C2=O)c(C2CC2)c1 [Compound 68, 6-(2-cyclopropyl-6-fluoro-4-(3-(2-hydroxypropan-2-yl)-1-methyl-1H-pyrazol-5-yl)benzyl)-6,7-dihydro-5H-pyrrolo[3,4-b]pyridin-5-one]	49%	≥ 10 µM	inactive		
Cc1cc(-c2cc(C(C)(C)O)nn2C)ccc1CN1Cc2ncccc2C1=O [Compound 69, 6-(4-(3-(2-hydroxypropan-2-yl)-1-methyl-1H-pyrazol-5-yl)-2-methylbenzyl)-6,7-dihydro-5H-pyrrolo[3,4-b]pyridin-5-one]	36%	≥ 10 µM	inactive		
CCC(O)(CC)c1ccc(-c2ccc(CN3Cc4ncccc4C3=O)c(F)c2)c2cn(C)nc12 [Compound 70, 6-(2-fluoro-4-(7-(3-hydroxypentan-3-yl)-2-methyl-2H-indazol-4-yl)benzyl)-6,7-dihydro-5H-pyrrolo[3,4-b]pyridin-5-one]	78%	2.21 µM	inactive		
CC(C)(O)c1ccc(-c2cc(F)c(CN3Cc4ncccc4C3=O)c(F)c2)c2ccccc12 [Compound 71, 6-(2,6-difluoro-4-(4-(2-hydroxypropan-2-yl)naphthalen-1-yl)benzyl)-6,7-dihydro-5H-pyrrolo[3,4-b]pyridin-5-one]	64%	≥ 10 µM	inactive		
Cc1cc(-c2ccc(C(C)(C)O)c3ccccc23)cc(F)c1CN1Cc2ncccc2C1=O [Compound 72, 6-(2-fluoro-4-(4-(2-hydroxypropan-2-yl)naphthalen-1-yl)-6-methylbenzyl)-6,7-dihydro-5H-pyrrolo[3,4-b]pyridin-5-one]	60%	6.96 µM	inactive		

Source: patent US20260138978A1, “POSITIVE ALLOSTERIC MODULATORS OF THE MUSCARINIC ACETYLCHOLINE RECEPTOR M1” (Vanderbilt University, priority 2022, published 2026)
